{"source": "ChEMBL document CHEMBL3232835", "about": "“Discovery of trifluoromethyl(pyrimidin-2-yl)azetidine-2-carboxamides as potent, orally bioavailable TGR5 (GPBAR1) agonists: structure-activity relationships, lead optimization, and chronic in vivo efficacy” (J Med Chem, 2014)", "key": {"[1]": {"assay": "AUC in mouse at 5 mg/kg, iv", "assay_type": "ADME, organism-based", "set-up": "dose 5 mg/kg, route intravenous", "conditions": "plasma"}, "[2]": {"assay": "AUC in mouse at 20 mg/kg, po", "assay_type": "ADME, organism-based", "set-up": "dose 20 mg/kg, route oral", "conditions": "plasma"}, "[3]": {"assay": "Volume of distribution at steady state in mouse at 5 mg/kg, iv", "assay_type": "ADME, organism-based", "set-up": "dose 5 mg/kg, route intravenous", "conditions": "in vivo, read-out: Vdss"}, "[4]": {"assay": "Cmax in mouse at 5 mg/kg, iv", "assay_type": "ADME, organism-based", "set-up": "dose 5 mg/kg, route intravenous", "conditions": "in vivo"}, "[5]": {"assay": "Oral bioavailability in mouse at 20 mg/kg", "assay_type": "ADME, organism-based", "conditions": "in vivo"}, "[6]": {"assay": "Cmax in mouse at 20 mg/kg, po", "assay_type": "ADME, organism-based", "set-up": "dose 20 mg/kg, route oral", "conditions": "in vivo"}, "[7]": {"assay": "in vitro", "conditions": "human, Caco-2"}, "[8]": {"assay": "AUC in mouse plasma at 20 mg/kg up to 5 hrs", "assay_type": "ADME, organism-based", "set-up": "time < 5 hr, dose 20 mg/kg"}, "[9]": {"assay": "in vitro", "conditions": "human, Caco-2", "remark": "listed apart in the source"}, "[10]": {"assay": "Cmax in ob/ob mouse at 30 mg/kg, po qd measured on day 37", "assay_type": "ADME, organism-based", "set-up": "dose 30 mg/kg, route oral", "conditions": "in vivo"}, "[11]": {"assay": "AUC in ob/ob mouse at 30 mg/kg, po qd measured on day 1", "assay_type": "ADME, organism-based", "set-up": "dose 30 mg/kg, route oral", "conditions": "plasma"}, "[12]": {"assay": "Cmax in ob/ob mouse at 30 mg/kg, po qd measured on day 1", "assay_type": "ADME, organism-based", "set-up": "dose 30 mg/kg, route oral", "conditions": "in vivo"}, "[13]": {"assay": "AUC in ob/ob mouse at 30 mg/kg, po qd measured on day 37", "assay_type": "ADME, organism-based", "set-up": "dose 30 mg/kg, route oral", "conditions": "plasma"}, "[14]": {"assay": "Lipophilicity, log D of the compound at pH 6.8", "assay_type": "physicochemical", "conditions": "buffer"}}}
{"smiles": "CN1CCN(c2cc(N3CCC[C@@H](C(=O)NCCc4ccc(C#N)cc4)C3)nc(C(F)(F)F)n2)CC1", "values": [{"measurement": "AUC", "setting": "[1]", "value": 2.67, "unit": "µM·h"}, {"measurement": "AUC", "setting": "[2]", "value": 2.54, "unit": "µM·h"}, {"measurement": "Vd", "setting": "[3]", "value": 1.6, "unit": "L/kg"}, {"measurement": "Cmax", "setting": "[4]", "value": 4.52, "unit": "µM"}, {"measurement": "bioavailability", "setting": "[5]", "value": 24, "unit": "%"}, {"measurement": "Cmax", "setting": "[6]", "value": 1.07, "unit": "µM"}]}
{"smiles": "N#Cc1ccc(CCNC(=O)[C@@H]2CCCN(c3cc(N4CCC(C(=O)O)CC4)nc(C(F)(F)F)n3)C2)cc1", "values": [{"measurement": "Papp A→B", "setting": "[7]", "value": 1.36, "unit": "×10⁻⁶ cm/s"}, {"measurement": "AUC at 5 h", "setting": "[8]", "value": 0.108, "unit": "µM·h"}, {"measurement": "Papp B→A", "setting": "[9]", "value": 13, "unit": "×10⁻⁶ cm/s"}]}
{"smiles": "CC1(C(=O)O)CCN(c2cc(N3CCC[C@@H](C(=O)NCCc4ccc(C#N)cc4)C3)nc(C(F)(F)F)n2)CC1", "values": [{"measurement": "Papp A→B", "setting": "[7]", "value": 1.02, "unit": "×10⁻⁶ cm/s"}, {"measurement": "AUC at 5 h", "setting": "[8]", "value": 1.05, "unit": "µM·h"}, {"measurement": "Papp B→A", "setting": "[9]", "value": 13.5, "unit": "×10⁻⁶ cm/s"}]}
{"smiles": "N#Cc1ccc(CCNC(=O)[C@@H]2CCCN(c3cc(N4CCC(Oc5ccc(CC(=O)O)cc5)CC4)nc(C(F)(F)F)n3)C2)cc1", "values": [{"measurement": "Papp A→B", "setting": "[7]", "value": 2.12, "unit": "×10⁻⁶ cm/s"}, {"measurement": "AUC at 5 h", "setting": "[8]", "value": 5.02, "unit": "µM·h"}, {"measurement": "Papp B→A", "setting": "[9]", "value": 6.4, "unit": "×10⁻⁶ cm/s"}]}
{"smiles": "N#Cc1ccc(CCNC(=O)[C@@H]2CCN2c2cc(N3CCC(Oc4ccc(CC(=O)O)cc4)CC3)nc(C(F)(F)F)n2)cc1", "values": [{"measurement": "AUC at 5 h", "setting": "[8]", "value": 14.2, "unit": "µM·h"}]}
{"smiles": "N#Cc1ccc(CCNC(=O)[C@@H]2CCN2c2cc(N3CCC(Oc4ccc(C(=O)O)cc4)CC3)nc(C(F)(F)F)n2)cc1", "values": [{"measurement": "AUC at 5 h", "setting": "[8]", "value": 7.53, "unit": "µM·h"}]}
{"smiles": "COc1cc(C2CCN(c3cc(N4CC[C@H]4C(=O)NCCc4ccc(C#N)cc4)nc(C(F)(F)F)n3)CC2)ccc1C(=O)O", "values": [{"measurement": "Papp A→B", "setting": "[7]", "value": 2.7, "unit": "×10⁻⁶ cm/s"}, {"measurement": "AUC at 5 h", "setting": "[8]", "value": 3.74, "unit": "µM·h"}, {"measurement": "Papp B→A", "setting": "[9]", "value": 12.9, "unit": "×10⁻⁶ cm/s"}]}
{"smiles": "N#Cc1ccc(CCNC(=O)[C@@H]2CCN2c2cc(-c3ccc(-c4ccc(C(=O)O)cc4)cc3)nc(C(F)(F)F)n2)cc1", "values": [{"measurement": "AUC at 5 h", "setting": "[8]", "value": 13.9, "unit": "µM·h"}]}
{"smiles": "N#Cc1ccc(CCNC(=O)[C@@H]2CCN2c2cc(-c3ccc([C@H]4CC[C@H](C(=O)O)CC4)cc3)nc(C(F)(F)F)n2)cc1", "values": [{"measurement": "Cmax", "setting": "[10]", "value": 5.17, "unit": "µM"}, {"measurement": "AUC", "setting": "[1]", "value": 13.9, "unit": "µM·h"}, {"measurement": "AUC", "setting": "[2]", "value": 53.8, "unit": "µM·h"}, {"measurement": "AUC", "setting": "[11]", "value": 45.5, "unit": "µM·h"}, {"measurement": "Cmax", "setting": "[12]", "value": 4.77, "unit": "µM"}, {"measurement": "Vd", "setting": "[3]", "value": 1.31, "unit": "L/kg"}, {"measurement": "Cmax", "setting": "[4]", "value": 12, "unit": "µM"}, {"measurement": "AUC", "setting": "[13]", "value": 37.5, "unit": "µM·h"}, {"measurement": "logD", "setting": "[14]", "value": 2.5}, {"measurement": "bioavailability", "setting": "[5]", "value": 96.5, "unit": "%"}, {"measurement": "AUC at 5 h", "setting": "[8]", "value": 11.4, "unit": "µM·h"}, {"measurement": "Cmax", "setting": "[6]", "value": 9.75, "unit": "µM"}]}
